For one assay, the system named is Murine L929 cells. The assay is described as follows: Necroptosis inhibition assay in L929 cells (mTNFα + zVAD, Sytox Green). Type of assay: cell-based. Particulars: Mus musculus, 10 ng/ml mTNFα and 20 μM zVAD, 6 hours, Sytox Green fluorescence. The gist of the method:
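Murine L929 cells, treated 48 h after seeding with 10 ng/ml mTNFα plus 20 μM zVAD and compound ([…]), 6 h at 37° C. Necroptosis read by Sytox Green fluorescence (500ex/530em), scaled between 0.1% DMSO and TNFα+zVAD wells; IC50 from inhibition curves.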

The subject of the next assay is Human HT-29 cells. The assay can be described thus: Necroptosis inhibition assay in HT-29 cells (hTNFα + zVAD + SMAC mimetic, Sytox Green/Hoechst). Type of assay: cell-based. The conditions noted are these: 10 ng/ml hTNFα, 20 μM zVAD and 100 nM SMAC mimetic, 6 hours, Sytox/Hoechst positive cells, read-out: HT29 necroptosis inhibition IC50. The gist of the method: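 Cells stimulated 48 h after seeding with 10 ng/ml hTNFα, 20 μM zVAD and 100 nM SMAC mimetic plus compound, 6 h at 37 °C. Sytox Green and Hoechst positive cells counted by imaging; inhibition scaled between DMSO-treated (100%) and stimulated-only (0%) wells, IC50 by curve fitting.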

The next assay deals with T1, RIPK3 (Homo sapiens, UniProt Q9Y572).
T1 construct: purchased Reaction Biology Corporation (RBC), Malvern, USA (contract assay service)
T1 sequence (Q9Y572 whole entry): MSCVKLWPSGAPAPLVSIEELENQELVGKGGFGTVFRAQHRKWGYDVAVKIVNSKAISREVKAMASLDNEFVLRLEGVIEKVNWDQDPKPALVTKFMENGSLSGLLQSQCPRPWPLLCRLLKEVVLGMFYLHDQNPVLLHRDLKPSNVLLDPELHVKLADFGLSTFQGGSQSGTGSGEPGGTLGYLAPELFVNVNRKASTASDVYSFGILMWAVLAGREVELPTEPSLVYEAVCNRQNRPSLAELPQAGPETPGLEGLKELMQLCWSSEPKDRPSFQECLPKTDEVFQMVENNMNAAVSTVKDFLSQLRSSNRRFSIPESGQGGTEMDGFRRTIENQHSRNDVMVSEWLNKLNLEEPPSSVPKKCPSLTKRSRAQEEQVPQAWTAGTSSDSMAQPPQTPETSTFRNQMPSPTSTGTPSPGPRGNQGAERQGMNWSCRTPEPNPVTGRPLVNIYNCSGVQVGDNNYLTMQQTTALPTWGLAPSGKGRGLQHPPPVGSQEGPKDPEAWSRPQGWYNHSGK
The assay can be described thus: RIPK3 kinase assay (radiometric HotSpot, Reaction Biology Corporation). Type of assay: biochemical. The procedure: The assays were performed in Reaction Biology Corporation (RBC), Malvern, USA. Compounds were diluted with DMSO to a final stock concentration of 10 mM and then were tested in a 10-dose IC50 mode with a 3-fold serial dilution starting at […]. All the reactions were carried out at 10 μM ATP and MBP 20 μM as substrates. RIPK3 activity was determined using radiometric HotSpot™ kinase assay protocol and IC50 values were calculated use GraphPad Prism software.

As a reminder, the IC50 is the concentration at which inhibition is half-maximal.

As for `CC(C)(C)N1CCN(Cc2ccc(-c3ccc4nccc(Nc5ccc6scnc6c5)c4c3)c(F)c2)CC1` [Compound 36, N-(6-(4-((4-(tert-butyl)piperazin-1-yl)methyl)-2-fluorophenyl)quinolin-4-yl)benzo[d]thiazol-5-amine], the IC50 stood at 318 nM in the assay with Murine L929 cells, 353 nM with Human HT-29 cells and 1.28 nM against RIPK3.
As to `CC(C)(C)N1CCN(Cc2ccc(-c3ccc4c(Nc5ccc6scnc6c5)ccnc4c3)c(F)c2)CC1` [Compound 37, N-(7-(4-((4-(tert-butyl)piperazin-1-yl)methyl)-2-fluorophenyl)quinolin-4-yl)benzo[d]thiazol-5-amine], the values for the IC50 with Murine L929 cells, in the assay with Human HT-29 cells and at RIPK3 were 445 nM, 670 nM and 1.79 nM, respectively.
The like results for `Fc1cc(CN2CCC(F)(F)CC2)ccc1-c1ccc2nccc(Nc3ccc4scnc4c3)c2c1` [Compound 40, N-(6-(4-((4,4-difluoropiperidin-1-yl)methyl)-2-fluorophenyl)quinolin-4-yl)benzo[d]thiazol-5-amine] were, in that order, 1060 nM, 7870 nM and 18.3 nM.
Take `Fc1cc(CN2CCNCC2)ccc1-c1ccc2nccc(Nc3ccc4scnc4c3)c2c1` [Compound 41, N-(6-(2-fluoro-4-(piperazin-1-ylmethyl)phenyl)quinolin-4-yl)benzo[d]thiazol-5-amine]: the IC50 is 365 nM in the assay with Murine L929 cells, 86.8 nM with Human HT-29 cells and 0.133 nM at RIPK3.
As for `Fc1cc(CN2CCCCC2)ccc1-c1ccc2c(Nc3ccc4scnc4c3)ccnc2c1` [Compound 43, N-(7-(2-fluoro-4-(piperidin-1-ylmethyl)phenyl)quinolin-4-yl)benzo[d]thiazol-5-amine], the IC50 is 188 nM in the assay on Murine L929 cells, 93.9 nM in the assay with Human HT-29 cells and 0.162 nM on RIPK3.
The like results for `O=c1ccccn1Cc1ccc(-c2ccc3nccc(Nc4ccc5scnc5c4)c3c2)c(F)c1` [Compound 47, 1-(4-(4-(benzo[d]thiazol-5-ylamino)quinolin-6-yl)-3-fluorobenzyl)pyridin-2(1H)-one] were, in that order, 421 nM, 1020 nM and 0.86 nM.
For the compound `c1cc(Nc2ccc3scnc3c2)c2ccc(-c3ccc(OCCN4CCCCC4)cc3)cc2n1` [Compound 50, N-(7-(4-(2-(piperidin-1-yl)ethoxy)phenyl)quinolin-4-yl)benzo[d]thiazol-5-amine], the IC50 with Murine L929 cells came to 320 nM; in the assay with Human HT-29 cells, 708 nM; at RIPK3, 0.102 nM.
The like results for `Fc1cc(CN2CC3(CCOCC3)C2)ccc1-c1ccc2nccc(Nc3ccc4scnc4c3)c2c1` [Compound 51, N-(6-(4-(7-oxa-2-azaspiro[3.5]nonan-2-ylmethyl)-2-fluorophenyl)quinolin-4-yl)benzo[d]thiazol-5-amine] were, in that order, 832 nM, 1200 nM and 1.88 nM.
For the compound `Fc1cc(CN2CC3(CCOCC3)C2)ccc1-c1ccc2c(Nc3ccc4scnc4c3)ccnc2c1` [Compound 52, N-(7-(4-(7-oxa-2-azaspiro[3.5]nonan-2-ylmethyl)-2-fluorophenyl)quinolin-4-yl)benzo[d]thiazol-5-amine], the values for the 50% inhibitory concentration (IC50) in the assay on Murine L929 cells, in the assay on Human HT-29 cells and against RIPK3 were 323 nM, 505 nM and 0.57 nM, respectively.
As for `O=C(c1ccc(-c2ccc3nccc(Nc4ccc5scnc5c4)c3c2)c(F)c1)N1CCCCC1` [Compound 53, (4-(4-(benzo[d]thiazol-5-ylamino)quinolin-6-yl)-3-fluorophenyl)(piperidin-1-yl)methanone], the values for the IC50 with Murine L929 cells, in the assay with Human HT-29 cells and against RIPK3 were 513 nM, 705 nM and 0.72 nM, respectively.
Turning to `Fc1cc(CN2CCCC2)ccc1-c1ccc2c(Nc3ccc4scnc4c3)ccnc2c1` [Compound 54, N-(7-(2-fluoro-4-(pyrrolidin-1-ylmethyl)phenyl)quinolin-4-yl)benzo[d]thiazol-5-amine], the IC50 in the assay with Murine L929 cells worked out at 201 nM; in the assay with Human HT-29 cells, 630 nM; against RIPK3 it was 0.308 nM.
The like results for `O=C(c1ccc(-c2ccc3c(Nc4ccc5scnc5c4)ccnc3c2)c(F)c1)N1CCCCC1` [Compound 61, (4-(4-(benzo[d]thiazol-5-ylamino)quinolin-7-yl)-3-fluorophenyl)(piperidin-1-yl)methanone] were, in that order, 93.3 nM, 94.2 nM and 0.029 nM.
In the case of `O=C(c1ccc(-c2ccc3nccc(Nc4ccc5scnc5c4)c3c2)c(F)c1)N1CCNCC1` [Compound 249, (4-(4-(benzo[d]thiazol-5-ylamino)quinolin-6-yl)-3-fluorophenyl)(piperazin-1-yl)methanone], the IC50 in the assay with Murine L929 cells was determined as 1260 nM; in the assay on Human HT-29 cells it was 67.9 nM; against RIPK3, 1.75 nM.
With `O=C1CN(C(=O)c2ccc(-c3ccc4c(Nc5ccc6scnc6c5)ccnc4c3)c(F)c2)CCN1` [Compound 276, 4-(4-(4-(benzo[d]thiazol-5-ylamino)quinolin-7-yl)-3-fluorobenzoyl)piperazin-2-one], the figures for the IC50 in the assay on Murine L929 cells, with Human HT-29 cells and at RIPK3 were 553 nM, 538 nM and 6.89 nM, respectively.
In the same order, the values of `O=C(c1ccc(-c2ccc3c(Nc4ccc5scnc5c4)ccnc3c2)c(F)c1)N1CC2(CNC2)C1` [Compound 284, (4-(4-(benzo[d]thiazol-5-ylamino)quinolin-7-yl)-3-fluorophenyl)(2,6-diazaspiro[3.3]heptan-2-yl)methanone] are 960 nM, 386 nM and 1.13 nM.
In the same order, the values of `O=C(c1ccc(-c2ccc3nccc(Nc4ccc5scnc5c4)c3c2)c(F)c1)N1CC2(CNC2)C1` [Compound 285, (4-(4-(benzo[d]thiazol-5-ylamino)quinolin-6-yl)-3-fluorophenyl)(2,6-diazaspiro[3.3]heptan-2-yl)methanone] are 2710 nM, 129 nM and 3.14 nM.
In the same order, the values of `Fc1cc(CN2CC3(CNC3)C2)ccc1-c1ccc2nccc(Nc3ccc4scnc4c3)c2c1` [Compound 292, N-(6-(4-((2,6-diazaspiro[3.3]heptan-2-yl)methyl)-2-fluorophenyl)quinolin-4-yl)benzo[d]thiazol-5-amine] are 1780 nM, 159 nM and 3.67 nM.

For the origin of these results see patent US20250092031A1, “RIPK3 INHIBITORS AND METHODS OF USE” (Momentum Therapeutics, Inc., priority 2023, published 2025).
